Data set [1] is described as follows: Inhibition of […] activity of proteasome from human PBMC after 30 mins by fluorimetry. In kind it is subcellular.
A short description of data set [2]: Inhibition of […] activity of proteasome from human LCL after 30 mins by fluorimetry. In kind it is subcellular.
Data set [3] is described as follows: Inhibition of post acidic activity of proteasome from human PBMC after 30 mins by fluorimetry. It counts as subcellular.
The species entered for a further data set is Homo sapiens. As to the kind of experiment: Stability in human plasma assessed as half life.
A short description of data set [4]: Inhibition of trypsin-like activity of proteasome from human PBMC after 30 mins by fluorimetry. It counts as subcellular.
Data set [5] can be described thus: Inhibition of trypsin-like activity of proteasome in human PBMC after 30 mins by cell based assay. Conditions: 0.5 h.
Data set [6] in a line: Antiproliferative activity against human LCL cells assessed as cell viability at <10 uM after 3 days by trypan blue assay. It counts as cell-based. Conditions: 72 h.
Data set [7] has as its system JIYOYE. Briefly: Antiproliferative activity against human Jijoye cells assessed as cell viability at 10 uM after 3 days by trypan blue assay. It counts as functional, cell-based.
A short description of data set [8]: Inhibition of trypsin-like activity of proteasome from human LCL after 30 mins by fluorimetry. In kind it is subcellular.
The nature of data set [9]: Inhibition of post acidic activity of proteasome from human LCL after 30 mins by fluorimetry. It counts as subcellular.
Data set [10] concerns JIYOYE. As to the kind of experiment: Antiproliferative activity against human Jijoye cells assessed as cell viability at <10 uM after 3 days by trypan blue assay. It counts as functional, cell-based.
Data set [11] is described as follows: Inhibition of post acidic activity of proteasome from human PBMC after 30 mins by cell based assay. Particulars: 0.5 h.
A short description of data set [12]: Antiproliferative activity against human LCL cells assessed as cell viability at 10 uM after 3 days by trypan blue assay. In kind it is cell-based. Conditions: 72 h.
The nature of data set [13]: Inhibition of […] activity of proteasome from human PBMC after 30 mins by cell based assay. Conditions: 0.5 h.

Molecules are shown by their SMILES. Where a SMILES comes first, the peptide text is derived from it. The star is where a group is joined. Cbz = O=C(OCc1ccccc1)*; X1 = C=CO*

For `C=COC(=O)[C@H](CC(C)C)NC(=O)[C@H](CO)NC(=O)[C@@H](NC(=O)CCCCCCCNC(=O)OCc1ccccc1)C(C)C`, the IC50 (in general, the concentration at which inhibition is half-maximal) is more than 10 µM in data set [1]; more than 10 µM in data set [2]; 0.175 µM in [3]; more than 10 µM in [4]; more than 10 µM in data set [5]; more than 10 µM in [8]. In addition, the values for the IC50 in [9], in [11] and in data set [13] were 5.64 µM, 0.219 µM and more than 10 µM, respectively. Moreover, the half-life (as a rule, the time in which the quantity being followed falls by half) in the data set filed under Homo sapiens was more than 6 h. In addition, the Activity result is “Non-toxic” in [6], “Toxic” with JIYOYE [7], “Non-toxic” with JIYOYE [10] and “Toxic” in [12].

Turning to `C=COC(=O)[C@H](CC(C)C)NC(=O)[C@H](CC(C)C)NC(=O)[C@H](CC(C)C)NC(=O)CCCCCCCNC(=O)OCc1ccccc1`, the IC50 in data set [1] was more than 10 µM; in [2], more than 10 µM; in data set [3], 0.487 µM; in data set [4] it was more than 10 µM; in data set [8], more than 10 µM; in [9] it was 2.43 µM.

In the case of `C=COC(=O)[C@H](CC(C)C)NC(=O)[C@H](CO)NC(=O)[C@@H](NC(=O)CNC(=O)OCc1ccccc1)C(C)C` (Cbz-GVSL-X1), the IC50 in [1] is more than 10 µM; in [2] it was more than 10 µM; in data set [3] it was 2.89 µM; in [4], more than 10 µM; in [8], more than 10 µM; in data set [9] it was more than 10 µM.

With `C=COC(=O)[C@H](CC(C)C)NC(=O)[C@H](CC(C)C)NC(=O)[C@H](CC(C)C)NC(=O)CCCCCCNC(=O)OCc1ccccc1`, the IC50 in [1] was more than 10 µM; in [2], more than 10 µM; in [3], 0.165 µM; in data set [4], more than 10 µM; in data set [8], more than 10 µM; in data set [9], 1.67 µM.

As to `C=COC(=O)[C@H](CC(C)C)NC(=O)[C@H](CO)NC(=O)[C@@H](NC(=O)CCCNC(=O)OCc1ccccc1)C(C)C`, the IC50 was more than 10 µM in [1]; more than 10 µM in data set [2]; 0.745 µM in data set [3]; more than 10 µM in data set [4]; more than 10 µM in data set [8]; 6.29 µM in [9].

Consider `C=COC(=O)[C@H](CC(C)C)NC(=O)[C@H](CO)NC(=O)[C@@H](NC(=O)CCCCCNC(=O)OCc1ccccc1)C(C)C`, for which the IC50 in [1] was more than 10 µM; in [2], more than 10 µM; in data set [3], 0.198 µM; in [4], more than 10 µM; in [5], more than 10 µM; in data set [8], more than 10 µM. Besides, the results for the half-maximal inhibitory concentration (IC50) in [9], in data set [11] and in data set [13] were 1.39 µM, 0.41 µM and more than 10 µM, respectively. Also, the half-life in the data set listed under Homo sapiens is more than 6 h.

Regarding `C=COC(=O)[C@H](CC(C)C)NC(=O)[C@H](CO)NC(=O)[C@@H](NC(=O)CCCCCCNC(=O)OCc1ccccc1)C(C)C`, the IC50 is more than 10 µM in data set [1]; more than 10 µM in data set [2]; 0.186 µM in data set [3]; more than 10 µM in [4]; more than 10 µM in data set [5]; more than 10 µM in [8]. Also, the IC50 is 2.71 µM in [9], 0.237 µM in data set [11] and more than 10 µM in [13]. The half-life in the data set filed under Homo sapiens was more than 6 h.

As to `C=COC(=O)[C@H](CC(C)C)NC(=O)[C@H](CC(C)C)NC(=O)[C@H](CC(C)C)NC(=O)CCCCCNC(=O)OCc1ccccc1`, the IC50 in data set [1] is more than 10 µM; in data set [2] it was more than 10 µM; in data set [3], 0.053 µM; in [4], 5.98 µM; in [5], 8.86 µM; in data set [8], more than 10 µM. For the same compound, the IC50 in [9] is 1.08 µM; in data set [11], 0.086 µM; in data set [13], more than 10 µM. The half-life in the data set listed under Homo sapiens is more than 6 h. The Activity entry is “Non-toxic” in [6], “Toxic” in the data set with JIYOYE [7], “Non-toxic” in the data set on JIYOYE [10] and “Toxic” in [12].

Turning to `CC(C)C[C@@H](C=O)NC(=O)[C@H](CC(C)C)NC(=O)[C@H](CC(C)C)NC(=O)OCc1ccccc1` [MG-132] (Cbz-Leu-Leu-Leu-aldehyde), the IC50 in [1] was 0.023 µM; in data set [2], 0.002 µM; in [3], more than 10 µM; in data set [4], 0.911 µM; in data set [8] it was 1.08 µM; in data set [9], more than 10 µM.

For `C=COC(=O)[C@H](CC(C)C)NC(=O)[C@H](CC(C)C)NC(=O)[C@H](CC(C)C)NC(=O)CCCNC(=O)OCc1ccccc1`, the IC50 is more than 10 µM in data set [1]; more than 10 µM in data set [2]; 0.208 µM in data set [3]; 7.23 µM in [4]; more than 10 µM in data set [5]; more than 10 µM in data set [8]. The IC50 is 2.07 µM in data set [9], 0.33 µM in [11] and more than 10 µM in data set [13]. In the data set listed under Homo sapiens, the half-life was more than 6 h.

`CC[C@H](C)[C@H](NC(=O)[C@H]([C@@H](C)CC)N(C)C(C)=O)C(=O)N[C@H](C(=O)N[C@@H](CC(C)C)C(=O)[C@@]1(C)CO1)[C@@H](C)O` [EPOXOMYCIN]: the IC50 in [1] is 0.009 µM; in data set [2] it was 0.005 µM; in [3], more than 10 µM; in [4], 0.758 µM.

Turning to `C=COC(=O)[C@H](CC(C)C)NC(=O)[C@H](CC(C)C)NC(=O)[C@H](CC(C)C)NC(=O)CCNC(=O)OCc1ccccc1`, the IC50 in data set [1] was more than 10 µM; in data set [2], more than 10 µM; in data set [3] it was 0.213 µM; in data set [4] it was more than 10 µM; in [5], more than 10 µM; in data set [8], more than 10 µM. For the same compound, the values for the IC50 in [9], in data set [11] and in data set [13] were 2.34 µM, 0.32 µM and more than 10 µM, respectively. Moreover, the half-life in the data set filed under Homo sapiens was more than 6 h.

Regarding `C=COC(=O)[C@H](CC(C)C)NC(=O)[C@H](CC(C)C)NC(=O)[C@H](CC(C)C)NC(=O)CCCCNC(=O)OCc1ccccc1`, the IC50 in data set [1] was more than 10 µM; in data set [2], more than 10 µM; in data set [3], 0.078 µM; in data set [4], 6.05 µM; in data set [5] it was 9.54 µM; in [8] it was more than 10 µM. In addition, the IC50 is 0.87 µM in data set [9], 0.128 µM in data set [11] and more than 10 µM in data set [13]. In the data set listed under Homo sapiens, the half-life was more than 6 h.

Regarding `C=COC(=O)[C@H](CC(C)C)NC(=O)[C@H](CO)NC(=O)[C@@H](NC(=O)CCCCNC(=O)OCc1ccccc1)C(C)C`, the IC50 was more than 10 µM in data set [1]; more than 10 µM in data set [2]; 0.231 µM in [3]; more than 10 µM in data set [4]; more than 10 µM in data set [5]; more than 10 µM in [8]. Besides, the figures for the IC50 in data set [9], in data set [11] and in data set [13] were 1.54 µM, 0.45 µM and more than 10 µM, respectively. Besides, the half-life in the data set listed under Homo sapiens was more than 6 h.

In the case of `C=COC(=O)[C@H](CC(C)C)NC(=O)[C@H](CC(C)C)NC(=O)[C@H](CC(C)C)NC(=O)CNC(=O)OCc1ccccc1` (Cbz-GLLL-X1), the IC50 in data set [1] is more than 10 µM; in data set [2], more than 10 µM; in [3] it was 0.545 µM; in data set [4], more than 10 µM; in data set [8], more than 10 µM; in data set [9], more than 10 µM.

For `C=COC(=O)[C@H](CC(C)C)NC(=O)[C@H](CO)NC(=O)[C@@H](NC(=O)CCNC(=O)OCc1ccccc1)C(C)C`, the IC50 in data set [1] was more than 10 µM; in data set [2] it was more than 10 µM; in [3], 0.831 µM; in data set [4], more than 10 µM; in [8], more than 10 µM; in data set [9], more than 10 µM.
